In US8338414B2, “Immunosuppressive agent and anti-tumor agent comprising heterocyclic compound as active ingredient” (Zenyaku Kogyo KabushikiKaisha, priority 2005, dated 2012):

How the values were obtained:
[1] = tested on: human peripheral blood mononuclear cells; experiment: Proliferation inhibition assay for human peripheral blood mononuclear cells; assay type: cell-based; conditions: Homo sapiens, 72 h; PBMC, anti-CD3 and anti-CD28 antibody, 3 days, Alamar Blue
Outline: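 PBMC from healthy donors (1×10^5 cells/mL) in RPMI 1640 with 10% FBS were stimulated with plate-bound anti-CD3 plus anti-CD28 (1 μg/mL). Serially diluted compounds were added and cells were cultured 3 days at 37 °C. Alamar Blue was then added for 1 day and fluorescence was read at ex 530/em 590 nm.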

Daudi cells = experiment: Therapeutic action on human B lymphoma xenografted model; assay type: in vivo, mouse; conditions: NOD/SCID mice, Daudi subcutaneous, 400 mg/kg oral after day 20
Procedure: Daudi cells (1×10^7 cells/mL) cultured in RPMI 1640 medium (containing 10% fetal bovine serum, 10 mM HEPES, 1 mM pyruvic acid, 4.5 g/L glucose, 100 units/mL penicillin, and 0.1 mg/mL streptomycin) were implanted subcutaneously in the chests of 8 week-old NOD/SCID mice. After day 20 when the tumor had grown to the volume of about 800 mm^3, Compound 4 (400 mg/kg) was administered orally.

[2] = tested on: human peripheral blood mononuclear cells; experiment: Activation inhibition assay for human peripheral blood mononuclear cells (CD40L, CD69 expression); assay type: cell-based; conditions: PBMC, anti-CD3 + anti-CD28, 6 hours, flow cytometry
Procedure: In accordance with the method of Assay Example 2, PBMC (2×10^6 cells/mL) was isolated from human peripheral blood, suspended in RPMI 1640 medium (containing 10% fetal bovine serum, 10 mM HEPES, 1 mM pyruvic acid, and 4.5 g/L glucose), and seeded in wells of a 96 well plate at 0.225 mL per well. The test substances were added to respective wells, and then an anti-CD3 antibody (2 μg/mL) and an anti-CD28 antibody (1 μg/mL) were added. Then, after incubation under conditions of carbon dioxide 5% at a temperature 37° C. for 6 hours, the expressions of CD40L and CD69, activation markers, were analysed by flow cytometry. As a result, when the cells were stimulated by both an anti-CD3 antibody and an anti-CD28 antibody, CD40L was expressed on 14.4% of PBMC, which was also CD4 positive. However, the proportion of the cells which expressed CD40L decreased when the cells had been treated with test substances (Compound 4: 4.9%; Compound 20: 3.7%, Compound 24: 3.6%).

## FC(F)c1nc2ccccc2n1-c1nc(N2CCOCC2)nc(N2CCOCC2)n1 [Compound 4, 2-(2-Difluoromethylbenzimidazol-1-yl)-4,6-dimorpholino-1,3,5-triazine]
[1]
  IC50: 312 nM
Daudi cells
  increase in tumor volume: inhibited
[2]; CD4 positive, 14.4% without test substance
  proportion of the cells which expressed CD40L: 4.9%
[2]; 28.8% without test substance
  proportion of CD4-positive cells which expressed CD69: 18.8%
[2]; 50.9% without test substance
  proportion of CD4-negative cells which expressed CD69: 17.7%
